Laboratory results from the supplement of paper PMC12463676, “Small-molecule dissolution of stress granules by redox modulation benefits ALS models” (Nature Chemical Biology, 2025).

Tests used:
potassium arsenate = compound: O=[As]([O-])(O)O.[K+] [potassium arsenate]; test: thermal stability z-score vs DMSO; higher = more thermally stabilized by treatment; conditions: HeLa; arsenate concentration 1 mM
Protocol: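 Cellular thermal proteome profiling in HeLa cells treated with 1 mM arsenate for 1 h (DMSO pretreatment), heated to ten temperatures (37-66.3 °C). Soluble protein was quantified by TMT mass spectrometry relative to DMSO controls; the thermal stability score was transformed to a z-score; mean of n = 3 experiments.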

lipoamide = compound: NC(=O)CCCCC1CCSS1 [lipoamide]; test: as above; conditions: HeLa, lipoamide concentration 100 µM
Protocol: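 Cellular thermal proteome profiling in HeLa cells. Cells were treated with 100 µM lipoamide for 1 h, with or without 1 mM arsenate for a further 1 h, then heated to ten temperatures (37-66.3 °C), and soluble protein was quantified by TMT mass spectrometry relative to 0.1% DMSO controls. The thermal stability score (sum of log2 fold changes minus the abundance score) was transformed to a z-score; mean of n = 3 experiments.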

[1] = arsenate co-treatment: 1 mM arsenate 1 h
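Also: each temperature applied for 3 min, abundance score taken as mean log2 fold change at the two lowest temperatures, z-score obtained by mean subtraction and division by SD.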

UniProt Q07866, sequence (Q07866 whole entry): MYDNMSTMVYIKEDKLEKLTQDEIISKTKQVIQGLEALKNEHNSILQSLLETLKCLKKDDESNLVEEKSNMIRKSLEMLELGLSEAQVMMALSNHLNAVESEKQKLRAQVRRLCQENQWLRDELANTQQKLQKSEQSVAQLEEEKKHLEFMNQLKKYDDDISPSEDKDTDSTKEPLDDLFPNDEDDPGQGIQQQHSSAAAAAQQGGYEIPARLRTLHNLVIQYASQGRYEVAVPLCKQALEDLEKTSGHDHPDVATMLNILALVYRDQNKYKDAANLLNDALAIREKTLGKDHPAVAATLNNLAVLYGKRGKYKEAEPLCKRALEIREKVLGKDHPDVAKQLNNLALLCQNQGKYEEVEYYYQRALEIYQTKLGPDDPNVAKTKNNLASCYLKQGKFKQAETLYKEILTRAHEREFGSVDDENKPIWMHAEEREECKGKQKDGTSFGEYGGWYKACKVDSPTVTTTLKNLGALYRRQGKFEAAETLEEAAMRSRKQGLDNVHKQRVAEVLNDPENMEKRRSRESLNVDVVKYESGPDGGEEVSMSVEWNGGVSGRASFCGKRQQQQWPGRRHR
UniProt O95239, sequence (O95239 whole entry): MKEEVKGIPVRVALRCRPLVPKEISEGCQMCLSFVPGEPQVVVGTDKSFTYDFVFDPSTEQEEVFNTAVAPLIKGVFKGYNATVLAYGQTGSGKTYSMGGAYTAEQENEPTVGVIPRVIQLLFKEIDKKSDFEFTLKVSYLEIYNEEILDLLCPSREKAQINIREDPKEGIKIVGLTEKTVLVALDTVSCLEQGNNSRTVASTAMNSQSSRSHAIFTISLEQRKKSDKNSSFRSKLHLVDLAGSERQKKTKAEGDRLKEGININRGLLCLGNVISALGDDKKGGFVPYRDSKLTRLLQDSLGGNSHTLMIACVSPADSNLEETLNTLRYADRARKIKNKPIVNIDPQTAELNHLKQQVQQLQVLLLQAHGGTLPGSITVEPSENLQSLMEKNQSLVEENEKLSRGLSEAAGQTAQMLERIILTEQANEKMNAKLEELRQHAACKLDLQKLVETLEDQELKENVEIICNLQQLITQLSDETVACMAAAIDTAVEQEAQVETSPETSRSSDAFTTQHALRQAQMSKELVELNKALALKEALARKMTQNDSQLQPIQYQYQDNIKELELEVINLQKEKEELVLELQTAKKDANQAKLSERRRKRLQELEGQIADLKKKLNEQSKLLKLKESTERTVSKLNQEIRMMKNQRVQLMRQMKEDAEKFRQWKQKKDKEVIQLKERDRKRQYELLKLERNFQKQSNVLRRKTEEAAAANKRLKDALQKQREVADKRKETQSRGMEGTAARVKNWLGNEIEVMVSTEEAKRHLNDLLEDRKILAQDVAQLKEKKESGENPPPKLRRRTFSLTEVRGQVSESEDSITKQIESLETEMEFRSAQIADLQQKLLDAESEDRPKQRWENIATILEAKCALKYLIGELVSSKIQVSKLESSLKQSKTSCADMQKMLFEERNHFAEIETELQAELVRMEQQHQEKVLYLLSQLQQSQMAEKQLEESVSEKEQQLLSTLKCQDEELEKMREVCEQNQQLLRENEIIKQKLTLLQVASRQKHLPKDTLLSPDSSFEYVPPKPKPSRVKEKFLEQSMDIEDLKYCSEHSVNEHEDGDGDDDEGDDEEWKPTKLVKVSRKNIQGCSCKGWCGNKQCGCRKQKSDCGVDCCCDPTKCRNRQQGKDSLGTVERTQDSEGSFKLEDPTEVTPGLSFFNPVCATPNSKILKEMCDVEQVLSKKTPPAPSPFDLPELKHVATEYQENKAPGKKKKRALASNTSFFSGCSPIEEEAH
UniProt Q9BW19, sequence (Q9BW19 whole entry): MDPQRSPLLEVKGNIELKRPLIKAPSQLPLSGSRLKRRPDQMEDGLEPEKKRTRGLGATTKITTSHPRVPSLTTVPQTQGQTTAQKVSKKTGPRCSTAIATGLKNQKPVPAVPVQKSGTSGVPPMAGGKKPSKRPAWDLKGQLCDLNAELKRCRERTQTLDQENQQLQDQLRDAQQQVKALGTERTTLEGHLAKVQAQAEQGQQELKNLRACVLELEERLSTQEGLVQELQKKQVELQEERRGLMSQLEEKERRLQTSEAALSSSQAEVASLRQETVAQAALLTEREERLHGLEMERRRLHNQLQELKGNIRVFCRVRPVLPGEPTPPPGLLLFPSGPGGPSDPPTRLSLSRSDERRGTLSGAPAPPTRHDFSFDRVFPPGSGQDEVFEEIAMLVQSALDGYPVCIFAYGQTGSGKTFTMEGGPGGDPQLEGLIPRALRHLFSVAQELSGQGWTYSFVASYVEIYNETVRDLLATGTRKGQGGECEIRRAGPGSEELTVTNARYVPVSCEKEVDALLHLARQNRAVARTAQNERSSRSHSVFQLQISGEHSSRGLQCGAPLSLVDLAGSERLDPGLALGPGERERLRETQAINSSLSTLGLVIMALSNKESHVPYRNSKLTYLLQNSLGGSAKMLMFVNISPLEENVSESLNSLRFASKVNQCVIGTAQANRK
UniProt Q9BVG8, sequence (Q9BVG8 whole entry): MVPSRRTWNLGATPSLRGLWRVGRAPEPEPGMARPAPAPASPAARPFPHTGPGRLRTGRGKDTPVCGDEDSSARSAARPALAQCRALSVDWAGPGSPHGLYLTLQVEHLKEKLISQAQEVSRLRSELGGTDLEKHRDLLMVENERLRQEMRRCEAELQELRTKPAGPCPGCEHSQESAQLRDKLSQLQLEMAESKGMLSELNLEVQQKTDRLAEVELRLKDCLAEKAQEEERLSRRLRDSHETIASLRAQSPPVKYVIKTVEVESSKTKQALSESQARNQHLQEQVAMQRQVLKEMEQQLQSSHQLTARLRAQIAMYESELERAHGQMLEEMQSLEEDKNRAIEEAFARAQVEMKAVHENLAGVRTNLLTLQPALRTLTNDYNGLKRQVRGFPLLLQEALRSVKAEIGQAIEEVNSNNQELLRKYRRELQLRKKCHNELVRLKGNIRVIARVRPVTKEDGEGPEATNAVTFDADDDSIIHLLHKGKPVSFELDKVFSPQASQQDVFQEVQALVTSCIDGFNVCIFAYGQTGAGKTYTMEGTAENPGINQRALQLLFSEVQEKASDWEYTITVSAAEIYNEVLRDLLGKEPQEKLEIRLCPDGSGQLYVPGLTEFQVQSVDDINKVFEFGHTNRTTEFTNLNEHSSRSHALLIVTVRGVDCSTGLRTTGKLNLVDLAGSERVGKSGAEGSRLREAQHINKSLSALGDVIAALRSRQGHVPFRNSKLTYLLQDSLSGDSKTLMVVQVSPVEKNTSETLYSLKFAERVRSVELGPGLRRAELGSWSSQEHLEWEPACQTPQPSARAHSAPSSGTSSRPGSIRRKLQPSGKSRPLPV
UniProt O00139, sequence (O00139 whole entry): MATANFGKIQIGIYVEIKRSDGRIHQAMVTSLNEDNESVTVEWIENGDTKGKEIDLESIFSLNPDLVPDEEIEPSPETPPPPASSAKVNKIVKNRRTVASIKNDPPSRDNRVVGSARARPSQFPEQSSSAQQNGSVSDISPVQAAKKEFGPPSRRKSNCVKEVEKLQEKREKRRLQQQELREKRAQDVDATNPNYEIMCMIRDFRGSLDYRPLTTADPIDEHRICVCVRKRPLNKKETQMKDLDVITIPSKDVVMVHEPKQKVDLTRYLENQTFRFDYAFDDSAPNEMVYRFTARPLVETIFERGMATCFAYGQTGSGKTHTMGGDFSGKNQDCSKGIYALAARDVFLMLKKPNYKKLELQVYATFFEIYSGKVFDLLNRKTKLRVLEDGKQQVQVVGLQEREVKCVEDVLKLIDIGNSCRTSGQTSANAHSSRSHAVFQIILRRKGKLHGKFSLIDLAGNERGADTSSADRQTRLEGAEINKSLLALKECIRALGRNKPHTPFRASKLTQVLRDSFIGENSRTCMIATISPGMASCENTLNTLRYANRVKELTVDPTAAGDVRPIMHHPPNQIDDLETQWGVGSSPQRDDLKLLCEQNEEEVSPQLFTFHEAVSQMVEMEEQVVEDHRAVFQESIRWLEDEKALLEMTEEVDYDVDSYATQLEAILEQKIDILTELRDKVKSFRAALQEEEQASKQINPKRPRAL
UniProt Q9P2N7, sequence (Q9P2N7 whole entry): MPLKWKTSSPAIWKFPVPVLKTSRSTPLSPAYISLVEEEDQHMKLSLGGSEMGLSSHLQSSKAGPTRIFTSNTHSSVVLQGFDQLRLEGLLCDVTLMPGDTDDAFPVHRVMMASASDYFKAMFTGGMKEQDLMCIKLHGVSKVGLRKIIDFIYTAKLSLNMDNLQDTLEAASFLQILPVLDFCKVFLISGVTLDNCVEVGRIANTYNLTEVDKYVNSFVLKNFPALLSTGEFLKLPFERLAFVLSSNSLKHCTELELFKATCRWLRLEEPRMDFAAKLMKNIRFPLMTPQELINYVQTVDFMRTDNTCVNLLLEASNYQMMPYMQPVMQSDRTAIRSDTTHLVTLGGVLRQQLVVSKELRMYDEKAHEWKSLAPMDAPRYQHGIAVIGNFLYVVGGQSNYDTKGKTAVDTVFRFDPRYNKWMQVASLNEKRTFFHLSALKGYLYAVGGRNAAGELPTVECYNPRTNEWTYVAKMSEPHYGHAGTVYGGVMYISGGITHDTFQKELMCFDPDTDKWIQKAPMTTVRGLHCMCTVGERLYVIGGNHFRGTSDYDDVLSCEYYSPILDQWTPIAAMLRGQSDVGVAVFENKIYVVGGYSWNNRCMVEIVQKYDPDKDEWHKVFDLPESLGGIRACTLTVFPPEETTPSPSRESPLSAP
UniProt Q9BXK1, sequence (Q9BXK1 whole entry): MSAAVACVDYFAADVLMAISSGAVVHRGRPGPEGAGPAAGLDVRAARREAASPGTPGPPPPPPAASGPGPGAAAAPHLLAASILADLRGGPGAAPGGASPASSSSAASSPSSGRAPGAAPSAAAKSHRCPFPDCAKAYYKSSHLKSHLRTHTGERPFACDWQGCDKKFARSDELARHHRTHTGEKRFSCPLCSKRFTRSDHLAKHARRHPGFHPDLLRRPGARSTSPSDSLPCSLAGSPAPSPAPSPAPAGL

Target	thermal stability z-score (potassium arsenate)	thermal stability z-score (lipoamide; [1])	thermal stability z-score (lipoamide; arsenate co-treatment: none)
KIF2A (UniProt O00139)	-0.0587	-0.584	-0.0403
KIF2C (UniProt Q99661)	0.56	-0.47	-0.0787
KIF3A (UniProt Q9Y496)	0.523	-0.146	0.418
KIF3B (UniProt O15066)	-0.47	0.285	-0.318
KIF4A (UniProt O95239)	-0.219	-0.0934	0.023
KIF5B (UniProt P33176)	1.17	0.397	0.256
KIF11 (UniProt P52732)	1.19	-0.347	0.00677
KIF13A (UniProt Q9H1H9)	0.0799	0.286	-0.0098
KIF14 (UniProt Q15058)	-0.00998	0.0801	0.0434
KIF15 (UniProt Q9NS87)	0.921	-0.328	-0.386
KIF20A (UniProt O95235)	-0.154	0.142	0.152
KIF21A (UniProt Q7Z4S6)	0.269	-0.586	-0.117
KIF22 (UniProt Q14807)	-0.386	-0.451	0.147
KIF23 (UniProt Q02241)	-0.0543	0.207	0.324
KIFC1 (UniProt Q9BW19)	-0.106	0.126	0.0537
KIFC3 (UniProt Q9BVG8)	-0.23	-0.119	-0.358
KIN (UniProt O60870)	-0.174	-0.0116	0.0339
KIRREL (UniProt Q96J84)	0.892	0.0439	-0.449
KLC1 (UniProt Q07866)	-0.0989	-0.0381	-0.129
KLC2 (UniProt Q9H0B6)	0.557	-0.0443	0.117
KLC4 (UniProt Q9NSK0)	0.297	-1.48	0.259
KLF4 (UniProt O43474)	-1.07	-0.157	-0.548
KLF16 (UniProt Q9BXK1)	0.778	-0.384	0.0662
KLHDC3 (UniProt Q9BQ90)	1.05	0.45	-0.351
KLHDC4 (UniProt Q8TBB5)	-0.251	-0.895	-0.0677
KLHL11 (UniProt Q9NVR0)	-0.421	0.651	-0.0811
KLHL13 (UniProt Q9P2N7)	0.825	-0.764	-0.242
KLHL26 (UniProt Q53HC5)	-0.108	-0.138	-0.165
KLHL42 (UniProt Q9P2K6)	-0.142	-0.26	-0.0102
KMT2D (UniProt O14686)	-0.661	-0.298	-0.455
